Target: T1, full-length NS3/NS4A-2 (HCV NS3 protease) (Hepatitis C virus genotype 1a, UniProt P27958)
T1 construct: Recombinant E. coli or Baculovirus full-length NS3 was diluted to 3.33 μM with assay buffer; made in house; host or cells: E. coli or baculovirus (BV) expression system
Assay: NS3-NS4 protease assay / NS3 inhibition assay (RETS1 substrate, fluorescence kinetic read)
Type: biochemical
Conditions: Table 22; read-out: NS3-NS4 IC50
How it was run: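 Ki values come from IC50 fits corrected via Ki=IC50/(1+[S]/Km), with Km 2.03 μM for E. coli and 1.74 μM for baculovirus full-length NS3. Enzyme (2 or 3 nM NS3, respectively, complexed with NS4A-2) sat with compound, top concentration 50 microM, for 10 min at room temperature. Cleavage of RETS1 (8 μM working solution) was then followed by fluorescence (335/495 nm) over 30 min.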

T1 sequence (P27958 1027-1657): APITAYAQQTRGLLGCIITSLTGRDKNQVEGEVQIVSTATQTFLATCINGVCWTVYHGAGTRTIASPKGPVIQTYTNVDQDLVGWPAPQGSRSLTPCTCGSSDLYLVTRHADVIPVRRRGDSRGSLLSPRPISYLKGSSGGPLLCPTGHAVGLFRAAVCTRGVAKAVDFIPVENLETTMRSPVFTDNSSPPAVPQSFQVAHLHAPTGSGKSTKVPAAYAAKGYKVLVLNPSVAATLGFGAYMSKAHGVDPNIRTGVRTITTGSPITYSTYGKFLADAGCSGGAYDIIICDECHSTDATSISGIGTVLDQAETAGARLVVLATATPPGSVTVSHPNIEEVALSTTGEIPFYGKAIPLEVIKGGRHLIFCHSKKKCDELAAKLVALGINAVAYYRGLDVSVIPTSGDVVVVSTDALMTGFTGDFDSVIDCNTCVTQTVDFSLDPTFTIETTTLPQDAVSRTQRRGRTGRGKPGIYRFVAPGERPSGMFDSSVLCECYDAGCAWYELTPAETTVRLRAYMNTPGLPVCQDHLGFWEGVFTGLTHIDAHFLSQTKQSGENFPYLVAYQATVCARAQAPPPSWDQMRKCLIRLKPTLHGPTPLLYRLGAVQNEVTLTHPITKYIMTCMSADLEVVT

SMILES	IC50
CC(C)(C)OC(=O)N[C@H]1CCCCC/C=C\[C@@H]2C[C@@]2(C(=O)NCC2CC2)NC(=O)[C@@H]2CCCN2C1=O [Compound 2302]	< 10 µM
CC(C)(C)OC(=O)NC1CCCCCC=CC2CC2(C(=O)NCc2cccc(Cl)c2)NC(=O)C2CCCN2C1=O (centres unmarked) [Compound 2309]	< 1 µM
COc1ccccc1NC(=O)[C@@]12C[C@H]1/C=C\CCCCC[C@H](NC(=O)OC(C)(C)C)C(=O)N1CCC[C@H]1C(=O)N2 [Compound 2313]	< 1 µM
CC(C)CNC(=O)[C@@]12C[C@H]1/C=C\CCCCC[C@H](NC(=O)OC(C)(C)C)C(=O)N1CCC[C@H]1C(=O)N2 [Compound 2314]	< 1 µM
CC(C)(C)CNC(=O)[C@@]12C[C@H]1/C=C\CCCCC[C@H](NC(=O)OC(C)(C)C)C(=O)N1CCC[C@H]1C(=O)N2 [Compound 2315]	< 1 µM
Cc1ccc(NC(=O)[C@@]23C[C@H]2/C=C\CCCCC[C@H](NC(=O)OC(C)(C)C)C(=O)N2CCC[C@H]2C(=O)N3)cc1 [Compound 2316]	< 1 µM
CC(C)(C)OC(=O)N[C@H]1CCCCC/C=C\[C@@H]2C[C@@]2(C(=O)Nc2cccc(Cl)c2)NC(=O)[C@@H]2CCCN2C1=O [Compound 2317]	< 1 µM
CC(C)(C)OC(=O)N[C@H]1CCCCC/C=C\[C@@H]2C[C@@]2(C(=O)NC2CC2)NC(=O)[C@@H]2CCCN2C1=O [Compound 2318]	< 1 µM
CCCNC(=O)[C@@]12C[C@H]1/C=C\CCCCC[C@H](NC(=O)OC(C)(C)C)C(=O)N1CCC[C@H]1C(=O)N2 [Compound 2319]	< 0.1 µM
CC(C)(C)OC(=O)N[C@H]1CCCCC/C=C\[C@@H]2C[C@@]2(C(=O)NCCc2ccccc2)NC(=O)[C@@H]2CCCN2C1=O [Compound 2320]	< 0.1 µM
COC(=O)c1cccc(CNC(=O)[C@@]23C[C@H]2/C=C\CCCCC[C@H](NC(=O)OC(C)(C)C)C(=O)N2CCC[C@H]2C(=O)N3)c1 [Compound 2321]	< 1 µM
CC(C)(C)OC(=O)N[C@H]1CCCCC/C=C\[C@@H]2C[C@@]2(C(=O)NCC#N)NC(=O)[C@@H]2CCCN2C1=O [Compound 2322]	< 0.1 µM

Same assay, conditions: Table 24; read-out: NS3-NS4 IC50

SMILES	IC50
CC(C)(C)OC(=O)N[C@H]1CCCCC/C=C\[C@@H]2C[C@@]2(C(=O)NCC2CC2)NC(=O)[C@@H]2C[C@@H](OC(=O)N3Cc4ccccc4C3)CN2C1=O [Compound 2501, (1S,4R,6S,14S,18R)-1,3-Dihydro-isoindole-2-carbonyloxylic acid 14-tert-butoxycarbonylamino-4-cyclopropylmethanaminocarbonyl-2,15-dioxo-3,16-diaza-tricyclo[14.3.0.0^4,6]nonadec-7-ene-18-yl ester]	> 10 µM
C[C@H](NC(=O)[C@@]12C[C@H]1/C=C\CCCCC[C@H](NC(=O)OC(C)(C)C)C(=O)N1C[C@H](OC(=O)N3Cc4ccccc4C3)C[C@H]1C(=O)N2)c1ccccc1 [Compound 2502]	> 10 µM

Same assay, conditions: recombinant E. coli or Baculovirus full-length NS3 with NS4A-2; read-out: NS3-NS4 IC50

SMILES	IC50
CC(C)(C)OC(=O)N[C@H]1CCCCC/C=C\[C@@H]2C[C@@]2(C(=O)NS(=O)(=O)NCCc2ccccc2)NC(=O)[C@@H]2CCCN2C1=O [Compound 2228]	< 10 µM
CN(c1ccc(F)cc1)S(=O)(=O)NC(=O)[C@@]12C[C@H]1/C=C\CCCCC[C@H](NC(=O)OC(C)(C)C)C(=O)N1CCC[C@H]1C(=O)N2 [Compound 2229]	< 10 µM
CN(Cc1ccc(Cl)cc1)S(=O)(=O)NC(=O)[C@@]12C[C@H]1/C=C\CCCCC[C@H](NC(=O)OC(C)(C)C)C(=O)N1CCC[C@H]1C(=O)N2 [Compound 2230]	< 10 µM
CN(C)c1ccc(NS(=O)(=O)NC(=O)[C@@]23C[C@H]2/C=C\CCCCC[C@H](NC(=O)OC(C)(C)C)C(=O)N2CCC[C@H]2C(=O)N3)cc1 [Compound 2231]	< 10 µM
CC(C)(C)OC(=O)N[C@H]1CCCCC/C=C\[C@@H]2C[C@@]2(C(=O)NS(=O)(=O)NCc2ccccc2)NC(=O)[C@@H]2CCCN2C1=O [Compound 2232]	< 10 µM
CC(C)(C)OC(=O)N[C@H]1CCCCC/C=C\[C@@H]2C[C@@]2(C(=O)NS(=O)(=O)Nc2ccccc2Cl)NC(=O)[C@@H]2CCCN2C1=O [Compound 2233]	< 1 µM
CC(C)(C)OC(=O)N[C@H]1CCCCC/C=C\[C@@H]2C[C@@]2(C(=O)NS(=O)(=O)Nc2ccc(C(F)(F)F)cc2)NC(=O)[C@@H]2CCCN2C1=O [Compound 2235]	< 1 µM
COc1ccccc1NS(=O)(=O)NC(=O)[C@@]12C[C@H]1/C=C\CCCCC[C@H](NC(=O)OC(C)(C)C)C(=O)N1CCC[C@H]1C(=O)N2 [Compound 2236]	< 1 µM
CC(C)(C)OC(=O)N[C@H]1CCCCC/C=C\[C@@H]2C[C@@]2(C(=O)NS(=O)(=O)Nc2ccc(F)cc2)NC(=O)[C@@H]2CCCN2C1=O [Compound 2237]	< 1 µM
C=CCNS(=O)(=O)NC(=O)[C@@]12C[C@H]1/C=C\CCCCC[C@H](NC(=O)OC(C)(C)C)C(=O)N1CCC[C@H]1C(=O)N2 [Compound 2238]	< 1 µM
CC(C)(C)OC(=O)N[C@H]1CCCCC/C=C\[C@@H]2C[C@@]2(C(=O)NS(=O)(=O)Nc2cccc(Cl)c2)NC(=O)[C@@H]2CCCN2C1=O [Compound 2239]	< 1 µM
COc1cccc(NS(=O)(=O)NC(=O)[C@@]23C[C@H]2/C=C\CCCCC[C@H](NC(=O)OC(C)(C)C)C(=O)N2CCC[C@H]2C(=O)N3)c1 [Compound 2240]	< 1 µM
CC(C)(C)OC(=O)N[C@H]1CCCCC/C=C\[C@@H]2C[C@@]2(C(=O)NS(=O)(=O)Nc2ccc(C#N)cc2)NC(=O)[C@@H]2CCCN2C1=O [Compound 2241]	< 1 µM
Cc1ccc(NS(=O)(=O)NC(=O)[C@@]23C[C@H]2/C=C\CCCCC[C@H](NC(=O)OC(C)(C)C)C(=O)N2CCC[C@H]2C(=O)N3)cc1 [Compound 2243]	< 1 µM
CC1CCCN1S(=O)(=O)NC(=O)[C@@]12C[C@H]1/C=C\CCCCC[C@H](NC(=O)OC(C)(C)C)C(=O)N1CCC[C@H]1C(=O)N2 (some centres unmarked) [Compound 2250]	< 10 µM
COC[C@H]1CCCN1S(=O)(=O)NC(=O)[C@@]12C[C@H]1/C=C\CCCCC[C@H](NC(=O)OC(C)(C)C)C(=O)N1CCC[C@H]1C(=O)N2 [Compound 2251]	< 0.1 µM
COC[C@@H]1CCCN1S(=O)(=O)NC(=O)[C@@]12C[C@H]1/C=C\CCCCC[C@H](NC(=O)OC(C)(C)C)C(=O)N1CCC[C@H]1C(=O)N2 [Compound 2252]	< 1 µM
CC(C)(C)OC(=O)N[C@H]1CCCCC/C=C\[C@@H]2C[C@@]2(C(=O)N[S@@+]([O-])C(C)(C)C)NC(=O)[C@@H]2CCCN2C1=O [Compound 2401, (1S,4R,6S,14S)tert-Butyl 4-((S)-2-methylpropane-2-sulfinyl)-aminocarbonyl-2,15-dioxo-3,16-diaza-tricyclo[14.3.0.0^4,6]nonadec-7-ene-14-yl carbamate]	< 0.1 µM
Cc1ccc([S@+]([O-])NC(=O)[C@@]23C[C@H]2/C=C\CCCCC[C@H](NC(=O)OC(C)(C)C)C(=O)N2CCC[C@H]2C(=O)N3)cc1 [Compound 2402]	< 0.1 µM
Cc1ccc([S@@+]([O-])NC(=O)[C@@]23C[C@H]2/C=C\CCCCC[C@H](NC(=O)OC(C)(C)C)C(=O)N2CCC[C@H]2C(=O)N3)cc1 [Compound 2403]	< 1 µM
CC(C)(C)OC(=O)N[C@H]1CCCCC/C=C\[C@@H]2C[C@@]2(C(=O)N[S@+]([O-])C(C)(C)C)NC(=O)[C@@H]2CCCN2C1=O [Compound 2404]	< 1 µM
